For series [1], the system named is Bacillus anthracis V770-NP1-R. In words: microbe, parasite or virus in culture. Format: cell-based. Particulars: V770NP1R, read-out: MIC BA.
Series [2] concerns Staphyloccocus aureus USA300. Briefly: Minimum inhibitory concentration, broth microdilution, Staphylococcus aureus. Format: cell-based. As to conditions: for MIC: Staphylococcus aureus. For orientation: Broth dilution looks for growth in wells or tubes with falling amounts of substance.
Another series deals with human Hela cells. Briefly: Mammalian cytotoxicity assay (CellTiter 96 AQueous One). The format is cell-based. Particulars: 24 h, highest concentration tested 100 μM, read-out: IC50 human Hela cell proliferation.
The test system of a further series is Staphylococcus aureus. Briefly: Minimum bactericidal concentration / bactericidal activity against SA. As to conditions: for MBC (100% killing of SA): 24 hours, n=4. The format is cell-based.
In another series the test system is S. aureus biofilms. Briefly: Anti-staphylococcal biofilm activity (static biofilms, cfu). Format: cell-based, Staphylococcus aureus.
The next series concerns Bacillus anthracis. Briefly: microbe, parasite or virus in culture. Particulars: 1 h, read-out: reduction of BA culture viability.
Series [3] is described as follows: Pharmacokinetics of pyrrolomycin 4 in mice (LC-MS/MS of plasma).
Where [4] appears, read: Staphyloccocus aureus USA300, n ≥ 3, read-out: MIC SA.

The structures appear in SMILES notation. Values after ≈ are worked out from the molar mass of the structure shown. Like-named read-outs stand apart in the source and are kept apart here.

As to `O=C(c1cc(Br)c(Br)[nH]1)c1cc(Cl)cc(Cl)c1O` [Compound 17], the MIC was 0.188 µg/mL (≈ 0.454 µM) in series [1] and 0.073 µg/mL (≈ 0.176 µM) in series [2] (USA300, read-out: MIC SA). Also, the IC50 in the series with human Hela cells is more than 41.4 µg/mL.

What is called melting point is the temperature of the solid-liquid transition. `O=C(c1ccc[nH]1)c1cc(F)cc(F)c1O` [Compound 9] showed a melting point of 161.7 to 162.5 °C. The MIC in series [1] is more than 4 µg/mL. Moreover, the MIC in series [2] (setting [4]) is more than 4 µg/mL.

Consider `COc1c(F)cc(F)cc1C(=O)c1ccc[nH]1` [Compound 8], for which the melting point lay in the range of 85.7 to 87.1 °C. For the same compound, in series [1], the MIC is more than 4 µg/mL. In addition, the MIC in series [2] (setting [4]) is more than 4 µg/mL.

For `O=C(c1cc(Br)c[nH]1)c1cc(Cl)cc(Cl)c1O` [Compound 19], in series [2] (Staphyloccocus aureus USA300, n ≥ 3), the “MIC SA” value was more than 4.0 µg/mL. In addition, the MIC in series [2] (USA300, read-out: MIC SA) is more than 4 µg/mL.

As to `Cn1c(Br)c(Br)c(Br)c1C(=O)c1cc(F)cc(F)c1O` [Compound 12], the melting point was in the range of 156.2 to 157.2 °C. Besides, the MIC in series [1] is more than 4 µg/mL. Moreover, the MIC in series [2] (setting [4]) was more than 4 µg/mL.

Take `COc1c(F)cc(F)cc1C(=O)c1c(Br)c(Br)c(Br)n1C` [Compound 11]: the melting point fell in the range of 107.4 to 108.1 °C. Moreover, the MIC in series [1] was more than 4 µg/mL. Besides, the MIC in series [2] (setting [4]) is more than 4 µg/mL.

With `O=C(c1ccc[nH]1)c1cc(Cl)cc(Cl)c1O` [Compound 15], the MIC in series [1] is more than 4 µg/mL; in series [2] (USA300, read-out: MIC SA) it was more than 4 µg/mL.

`O=C(c1cc(F)cc(F)c1O)c1[nH]c(Br)c(Br)c1Br` [Compound 3]: the melting point fell in the range of 151.8 to 152.7 °C. The MIC in series [1] stood at 0.031 µg/mL (≈ 0.0674 µM). Further, the MIC in series [2] (setting [4]) turned out to be 0.17 µg/mL (≈ 0.37 µM). Further, in the series on human Hela cells, the IC50 is more than 46 µg/mL.

Take `COc1c(F)cc(F)cc1C(=O)c1[nH]c(Br)c(Br)c1Br` [Compound 10]: the melting point lay in the range of 178.9 to 179.7 °C. The MIC in series [1] worked out at 1.5 µg/mL (≈ 3.17 µM). Also, the MIC in series [2] (setting [4]) worked out at 3 µg/mL (≈ 6.33 µM).

In general, AUC refers to concentration integrated over time. For the compound `O=C(c1cc(Br)c(F)[nH]1)c1cc(Cl)cc(Cl)c1O` [Compound 4], the MIC in series [1] was 0.047 µg/mL (≈ 0.133 µM); in series [2] (USA300, read-out: MIC SA) it was 0.073 µg/mL (≈ 0.207 µM). Besides, the IC50 in the series with human Hela cells is more than 35.3 µg/mL. In addition, the “killing of SA” value in the series on Staphylococcus aureus (4 μg/mL, no growth of colonies after incubation for 48 hours) worked out at 100%. Besides, the “MBC (100% killing of SA)” value with Staphylococcus aureus was determined as 4 µg/mL. Also, the biofilm killing with S. aureus biofilms (24 hours, 8.0 μg/mL, n=4) is reported as 84%; in the series with S. aureus biofilms (48 hours, 8.0 μg/mL) it was 97%; in the series on S. aureus biofilms (120 hours, 8.0 μg/mL) it was more than 99.9%. Further, the inhibition at […] in the series with Bacillus anthracis came out at 60%. This compound also registered an oral bioavailability in series [3] (10 mg/kg oral vs 1.0 mg/kg IV) of 35%. In addition, the elimination half-life in series [3] (IV) is 6.04 h; in series [3] (oral), 6.75 h. The “time parent compound detectable in plasma” value in series [3] (IV and oral, detection limit 0.8 ng/mL) was “up to 72 hours”. Also, the AUC in series [3] (IV dose 1 mg/kg) turned out to be 3.8 µg·h/mL; in series [3] (oral dose 10 mg/kg) it was 13.2 µg·h/mL.

Consider `CN[C@H](CC(C)C)C(=O)N[C@H]1C(=O)N[C@@H](CC(N)=O)C(=O)N[C@H]2C(=O)N[C@H]3C(=O)N[C@H](C(=O)N[C@H](C(=O)O)c4cc(O)cc(O)c4-c4cc3ccc4O)[C@H](O)c3ccc(c(Cl)c3)Oc3cc2cc(c3O[C@@H]2O[C@H](CO)[C@@H](O)[C@H](O)[C@H]2O[C@H]2C[C@](C)(N)[C@H](O)[C@H](C)O2)Oc2ccc(cc2Cl)[C@H]1O` [vancomycin, reference compound], for which the MIC in series [2] (setting [4]) was determined as 2 µg/mL (≈ 1.38 µM). Moreover, in the series with Staphylococcus aureus, the “MBC (100% killing of SA)” value came to 8 µg/mL. Moreover, the biofilm killing with S. aureus biofilms (24 hours, 32 μg/mL, n=4) worked out at 11%; in the series with S. aureus biofilms (120 hours, 32 μg/mL), 39%.

With `O=C(c1cc(Cl)cc(Cl)c1O)c1[nH]c(F)c(Br)c1Br` [Compound 18], the melting point was 171.9 to 172.7 °C. Further, the MIC in series [1] was 0.125 µg/mL (≈ 0.289 µM). Further, in series [2] (setting [4]), the MIC worked out at 0.19 µg/mL (≈ 0.44 µM). Besides, in the series on human Hela cells, the IC50 is more than 43.2 µg/mL. The inhibition at […] in the series with Bacillus anthracis turned out to be 92%.

Values taken from patent US10414725B2, “Pyrrolomycins and methods of using the same” (priority 2015, dated 2019).
